Assay results from publication PMC8262356, “SLC26A6-selective inhibitor identified in a small-molecule screen blocks fluid absorption in small intestine” (JCI Insight, 2021).

How the values were obtained:
slc26a4 = biological target: T1, slc26a4 (Mus musculus, UniProt Q9R155); experiment: Selectivity: Cl-/I- exchange in FRT cells coexpressing YFP and slc26a4; type: cell-based; conditions: 25 μM
T1 construct: expressed in transfected cells; host or cells: FRT cells coexpressing YFP
T1 sequence (Q9R155 1-780): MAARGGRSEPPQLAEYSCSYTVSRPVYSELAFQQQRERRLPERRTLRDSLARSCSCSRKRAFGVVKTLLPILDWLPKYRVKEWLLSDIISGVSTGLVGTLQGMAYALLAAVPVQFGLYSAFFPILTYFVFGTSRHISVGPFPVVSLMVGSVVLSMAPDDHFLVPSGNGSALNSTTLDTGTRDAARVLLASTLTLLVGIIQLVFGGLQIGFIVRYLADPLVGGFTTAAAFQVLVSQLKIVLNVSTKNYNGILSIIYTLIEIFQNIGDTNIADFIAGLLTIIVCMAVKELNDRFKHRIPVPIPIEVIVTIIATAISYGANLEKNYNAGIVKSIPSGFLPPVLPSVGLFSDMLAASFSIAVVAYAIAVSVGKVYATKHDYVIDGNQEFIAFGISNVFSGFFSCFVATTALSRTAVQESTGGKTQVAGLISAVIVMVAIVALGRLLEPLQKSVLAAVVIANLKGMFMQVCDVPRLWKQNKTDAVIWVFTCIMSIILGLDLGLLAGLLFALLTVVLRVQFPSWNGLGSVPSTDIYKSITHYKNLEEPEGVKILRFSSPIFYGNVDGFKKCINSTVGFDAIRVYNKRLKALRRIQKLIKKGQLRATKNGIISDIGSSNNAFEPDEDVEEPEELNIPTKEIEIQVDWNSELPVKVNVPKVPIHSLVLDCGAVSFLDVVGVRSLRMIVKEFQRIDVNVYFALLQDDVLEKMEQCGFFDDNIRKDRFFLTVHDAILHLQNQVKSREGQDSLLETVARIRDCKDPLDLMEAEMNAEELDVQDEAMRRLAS
Experimental: (§1) PAT1inh-B01 selectivity was studied by testing its effects on related SLC26A family anion transporters and the Cl^– channel TMEM16A. These measurements used a similar Cl^–/I^– exchange protocol, but FRT cells separately expressed each of the SLC26A family members or TMEM16A. […] PAT1inh-B01 selectivity was also tested by short-circuit current (Isc) in well-differentiated human bronchial epithelial (HBE) cells, which have a complex ion transport mechanism that includes cystic fibrosis transmembrane conductance regulator (CFTR), epithelial Na^+ channel (ENaC), and Ca^+2-activated chloride channels (CaCCs) ([13]). […] Potential PAT1inh-B01 cytotoxicity was studied in FRT cells.
(§2) Figure 3 PAT1inh-B01 selectivity and cytotoxicity. […] Cl^–/I^– exchange or I^– influx measured in FRT cells coexpressing YFP and SLC26A isoforms or TMEM16A, with data shown for 25 μM PAT1inh-B01, DMSO vehicle control, and 500 μM niflumic acid (positive control for SLC26A transporters) or 10 μM TMinh-23 (positive control for TMEM16A). […] (C) (left) Short-circuit current (Isc) in well-differentiated HBE cells measured in the absence (top) and presence (bottom) of 25 μM PAT1inh-B01. […]
(§3) YFP-based cellular assays of slc26a3, slc26a4, SLC26A9, and TMEM16A function were performed as described previously ([7]). […] The activities of ENaC, CFTR, and CaCC were determined using well-differentiated HBE cells as described previously ([13]). […]

TMEM16A = experiment: Selectivity: I- influx in FRT cells coexpressing YFP and TMEM16A; type: cell-based; conditions: 25 μM
Experimental: as §1, §2, §3

[1] = test system: mouse distal colonic closed loops; experiment: Closed distal colonic loop fluid absorption; type: in vivo; conditions: 30 μM luminal
Experimental: For fluid absorption studies in colon, mice were given free access to 5% dextrose in water but not solid food for 48 hours. Mice were treated with 500 μL mineral oil twice a day rectally (final dose 16 h before surgery) during this period to evacuate the colon. Closed distal colonic loops (length 1.5–2 cm, 1 loop per mouse) were isolated as described previously ([7]). Loops were injected with 100 μL PBS with 30 μM PAT1inh-B01, 10 μM DRAinh-A270, or 10 μM tenapanor (or vehicle). In some experiments, 30 μM PAT1inh-B01 and 10 μM DRAinh-A270 were used together. Colonic loops were removed at 0 and 60 minutes (in separate mice), and loop length and weight were measured to quantify fluid absorption.

Cc1c(Br)c(C(F)(F)F)nn1CC(=O)N1CCc2nc3cc(-c4ccccc4)[nH]n3c(=O)c2C1 [PAT1inh-B01]
inhibition of slc26a4 (slc26a4): did not significantly inhibit
inhibition of TMEM16A (TMEM16A): did not significantly inhibit
effect on colonic fluid absorption (loop weight-to-length ratio) [1]: did not inhibit
